Consider one compound from patent US9549928B2, “Muscarinic agonists as enhancers of cognitive flexibility” (THE UNIVERSITY OF TOLEDO, priority 2011, dated 2017).

Common to all, as to format: in vivo, rat
Data set [1] deals with male Long-Evans rats. Nature of the data set: Place discrimination acquisition and switch to visual cue discrimination (strategy switching). The conditions noted are these: i.p. How it is done:
A different group of rats was used for the discrimination learning and strategy switching tests from that used in the delayed spontaneous alternation test. Prior to testing, rats were food-restricted to maintain their weight at 85% of their free-feed weight, handled and trained in the maze to obtain half piece of Froot Loops® cereal in the cross-maze.
Following training, each rat was tested across two consecutive days. In the first experiment each rat had to learn a place discrimination. Rats were started in a pseudorandom manner from one of two different arms such that any start arm was not used more than 3 consecutive trials. The two start arms (“east” and “west”) were always opposite each other. A black plastic block was placed in the entrance of the maze arm opposite to that of the start arm, giving the maze a T-shape. Thus, the same two choice arms were used no matter what start arm was used. A rat was started in the stem arm with only one of the two choice arms baited. In the acquisition phase, one choice arm or place was designated the reinforced arm which contained a ½ piece of cereal reinforcement on each trial. In this phase, a rat was required to enter the reinforced arm containing a ½ piece of cereal. […]
In the switch phase of each experiment, the errors committed were separated into different categories and analyzed. […]

Data set [2] relates to male Long-Evans rats. Briefly: Salivation studies, salivary output over 60 minutes after i.p. administration. On the procedure:
For studies of salivation, male Long-Evans rats were purchased from Charles River Laboratories (Wilmington, Mass.) weighing between 250-425 g. Animals were kept in a vivarium on a 12-h light/dark cycle. Humidity was maintained at 30-70%, and temperature was maintained at 20-24° C. All procedures were approved by the Institutional Animal Care and Use Committee at Mithridion, Inc.
Salivation was quantified in rats following i.p. administration of CDD-0102A. Rats were first anesthetized with isoflurane, and then dosed with CDD-0102 by i.p. injection. Anesthesia was maintained by a nose cone that delivered 1.5-2.5% isoflurane in 500 ml/minute of oxygen. CDD-0102A was dissolved in phosphate-buffered saline and the injection volume was 2 ml/kg. The hind limbs of anesthetized animals were taped to the top of an incline (25° grade) so that the animal was oriented with its head near the bottom of the slope and its dorsal-surface oriented upward. Body temperature was monitored by a rectal thermometer, and maintained at 36-38° C. by a heating pad. The animal's nose was inserted into a nose cone for maintaining anesthesia while the entire mouth remained outside this nose cone. Pre-weighed filter paper (approximately 5×5 cm) was placed underneath the mouth to absorb the draining saliva. After 5 minutes, the saliva-wetted filter paper was weighed and replaced with fresh, pre-weighed filter paper. Total salivary output was calculated by subtracting the mass of the filter paper from the combined mass of paper plus saliva as collected over 60 minutes.

Data set [3] relates to normal rats. Briefly: Example 2: attentional set-shifting model, visual cue strategy shifted to place strategy. The conditions noted are these: injection before acquisition (FIG. 8A). The source says:
The whole experiment was repeated with the rats learning first a visual cue strategy and then being switched to a place strategy.

Data set [4] deals with male Long-Evans rats. Nature of the data set: Visual cue discrimination acquisition and switch to place discrimination (strategy switching). The following applies: 0.003 mg/kg i.p. before switch phase; vs controls. How it is done:
In a separate experiment, the effect of CDD-0102A on initial learning of a visual cue strategy and switch to a place strategy was determined. All other aspects of the testing procedure were as described above. The treatment groups in this experiment were as follows: 1) saline—saline (n=8); 2) saline—CDD-0102A 0.003 mg/kg (n=7); 3) saline—CDD-0102A 0.03 mg/kg (n=7); 4) vehicle—CDD-0102A 0.1 mg/kg (n=8); 5) CDD-0102A 0.03 mg/kg-saline (n=7); or 6) CDD-0102A 0.01 mg/kg-saline (n=8).
These same types of errors were calculated in a similar manner for the experiment in which rats first learned a visual cue strategy and then switched to a place strategy.
In the spontaneous alternation task, a one-way analysis of variance was used to identify differences in percent alternation scores and number of arm entries across groups. Newman-Keuls post-hoc tests were used to compare treatment and control group measures. In the discrimination learning tests, one-way analyses of variance were used to identify differences in trials to criterion for acquisition and strategy switching. Separate analyses of variance were carried out to determine group differences in perseverative, regressive, and never-reinforced errors. Newman-Keuls post-hoc tests were used to compare differences between treatment groups.

Data set [5] concerns male Long-Evans rats. Briefly: Delayed spontaneous alternation in a 4-arm cross maze (30 second delay). The conditions noted are these: i.p. On the procedure:
For behavioral studies, male Long-Evans rats were purchased from Harlan (Indianapolis, Ind.) weighing between 325-375 g. Rats were individually housed in plastic cages (20.3 cm×20.3 cm×41.9 cm) in an environmentally controlled room (23° C., 30% humidity) on a 12 h:12 h light:dark cycle (lights on at 7:00 am). After at least four days to acclimate to the colony room, rats were handled for 10 minutes per day for four days to adjust to being handled during training and testing. At the same time rats began to be handled, rats were also food restricted to reduce their weight to 85-90% of their ad libitum weight. Rats had free access to water throughout the experiment. Animal care and use conformed to the guidelines of the National Institutes of Health Guide for the Care and Use of Laboratory Animals, and was approved by the Institutional Laboratory Animal Care and Use Committee at the University of Illinois at Chicago.
All behavioral testing occurred in a cross maze made of translucent black acrylic. Each arm measured 55 cm long, 10 cm wide, and 15 cm in height. A circular food well, with a diameter of 3.2 cm and a depth of 1.6 cm was placed 3 cm from the end of each arm. […]
In this test, rats were placed in the testing room 5 minutes prior to behavioral testing. […] The number and sequence of arm entries was recorded. An arm entry was recorded when all four paws entered an arm. […]

Data set [6] concerns normal rats. Nature of the data set: Example 2: attentional set-shifting model, place strategy shifted to visual cue strategy. The conditions noted are these: injection before acquisition (FIG. 7A). From the text:
The beneficial effects of CDD-0102A in the rat model of cognitive flexibility are among the strongest evidence providing the scientific rationale for CDD-0102A in the treatment of PSP. The inventors have developed several models of cognitive flexibility, including the model of attentional set shifting involving an extradimensional set shift described here. The model involves a place-visual cue task. Rats first learned to use a place strategy—always to enter the same arm to receive a food reward. Criterion was set at 10 consecutive correct trials. The following day, rats had to inhibit the place strategy and to learn a new visual cue strategy to receive the reward. Local visual cues in the maze arms included a black board in one arm and white board in the other arm. The cues were switched between the choice arms randomly across trials so the same cue was not always in the same location. The rat had to choose the arm that contained a particular color cue (e.g., black) in order to receive the reward. The criterion again was set at 10 consecutive correct trials.
Rats received either saline (N=3) or CDD-0102A at various doses 30 minutes prior to testing.

In the case of `CCc1noc(C2CN=CNC2)n1` (stereo not shown) [CDD-0102A, 5-(3-ethyl-1,2,4-oxadiazol-5-yl)-1,4,5,6-tetrahydropyrimidine], the “dose at which effect on strategy switching is maximal” value in the data set on male Long-Evans rats [1] was 0.03 mg/kg. The “salivary output over 60 minutes” value was “no salivation” in the data set with male Long-Evans rats [2] (0.1 mg/kg i.p.); 4,685±449 μl in the data set on male Long-Evans rats [2] (5 mg/kg i.p. (most salivation), mean ± SEM); “not significantly different” in the data set on male Long-Evans rats [2] (10 mg/kg i.p., compared with 5 mg/kg dose, P>0.5). Also, the “separation between dose enhancing place-visual cue task (0.03 mg/kg ip) and dose producing half-maximum salivation” value with male Long-Evans rats [2] (efficacious dose lower than dose producing half-maximum salivation) is recorded as “approximately 100 fold”. In addition, the “lowest dose that produced salivation” value in the data set with male Long-Evans rats [2] (i.p.) is 0.3 mg/kg. Also, the “acquisition of the visual-cue strategy” value with normal rats [3] is “no effect”. In addition, the “trials to criterion, switch to place strategy” value in the data set with male Long-Evans rats [4] was “no significant effect”. Further, in the data set with male Long-Evans rats [5], the “dose at which significant improvement in memory function was observed” value was at least 0.1 mg/kg. The “acquisition of the place-cue strategy” value in the data set with normal rats [6] is recorded as “no effect”.
